Experiments:
[1] = system: Downy Mildew (Plasmopara viticola); assay: Spray trial on first year grape vines, Downy Mildew infection; assay type: in vivo; details: in words
Procedure: Eight solutions were prepared as described in Table 2a. These solutions were sprayed on first year grape vines showing no signs of Downy Mildew (Plasmopara viticola). […] Six of the solutions included Additive Blend 1 (a 50:50 blend of POE 10 soybean oil and PEG 400 dioleate).
Four applications were made over a month to the same grape vines. At the end of the month, the infection rates of Downy Mildew were evaluated by comparing to untreated grape vines.
Eight solutions were prepared as described in Table 6a. These solutions were sprayed on first year grape vines showing no signs of Downy Mildew (Plasmopara viticola). […] Six of the solutions included PEG 400 dioleate.

[2] = system: Pseudomonas fluorescens; assay: Additive compatibility with microbial growth (growth slope by OD 620 nm); assay type: cell-based; details: additive 0.01-5 %, exposed 4 hours at 16° C., then tryptic soy broth 30° C., slope compared to 0% sample
[3] = system: Bacillus firmus; assay: as above; assay type: cell-based; details: additive 0.01-5 %, exposed 4 hours at 16° C., then tryptic soy broth 30° C., slope compared to 0% sample
[4] = system: Bacillus amyloliquefaciens; assay: as above; assay type: cell-based; details: additive 0.01-5 %, exposed 4 hours at 16° C., then tryptic soy broth 30° C., slope compared to 0% sample
[5] = system: Bacillus subtilis; assay: as above; assay type: cell-based; details: additive 0.01-5 %, exposed 4 hours at 16° C., then tryptic soy broth 30° C., slope compared to 0% sample

PEG 400 dioleate [v-3]
Control of Downy Mildew (lower %-Infection) when additive was added to Serifel Biofungicide spray solutions [1]: improved control
Influence of additive on microbial growth slope (compatibility), Pseudomonas fluorescens [2]: E (E represents an Enhancing result)
Influence of additive on microbial growth slope (compatibility), Bacillus firmus [3]: E (E represents an Enhancing result)
Influence of additive on microbial growth slope (compatibility), Bacillus amyloliquefaciens [4]: E (E represents an Enhancing result)
Influence of additive on microbial growth slope (compatibility), Bacillus subtilis [5]: E (E represents an Enhancing result)
